Assay in all cases: Kinome scan
Common to all, as to format: binding
What all share (conditions): 1000 nM

The target in assay [1] is T1, PKAC-alpha (Homo sapiens, UniProt P17612).
T1 construct: purchased Eurofins DiscoverX Corporation
An outline of the steps: (§1)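 The compound was screened at a single concentration of 1 μM against a panel of 96 kinases. Binding interactions were expressed as percent inhibition, and two independent runs were performed.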

Assay [2] deals with T2, MKNK1 (Homo sapiens, UniProt Q9BUB5).
T2 construct: purchased Eurofins DiscoverX Corporation
A digest of the protocol:
as §1

Assay [3] concerns the target T3, KIT(D816V) (Homo sapiens, UniProt P10721, D816V).
T3 construct: purchased Eurofins DiscoverX Corporation
An outline of the steps:
as §1

Assay [4] addresses T4, FAK (Homo sapiens, UniProt Q05397).
T4 construct: purchased Eurofins DiscoverX Corporation
An outline of the steps:
as §1

The target of assay [5] is T5, CHEK1 (Homo sapiens, UniProt O14757).
T5 construct: purchased Eurofins DiscoverX Corporation
A digest of the protocol:
as §1

For assay [6], the target named is T6, ERBB4 (Homo sapiens, UniProt Q15303).
T6 construct: purchased Eurofins DiscoverX Corporation
An outline of the steps: as §1

Assay [7] addresses T7, BRAF(V600E) (Homo sapiens, UniProt P15056, V600E).
T7 construct: purchased Eurofins DiscoverX Corporation
An outline of the steps: as §1

Assay [8] has as its target T8, CSF1R (Homo sapiens, UniProt P07333).
T8 construct: purchased Eurofins DiscoverX Corporation
An outline of the steps:
as §1

T4 sequence (Q05397 whole entry): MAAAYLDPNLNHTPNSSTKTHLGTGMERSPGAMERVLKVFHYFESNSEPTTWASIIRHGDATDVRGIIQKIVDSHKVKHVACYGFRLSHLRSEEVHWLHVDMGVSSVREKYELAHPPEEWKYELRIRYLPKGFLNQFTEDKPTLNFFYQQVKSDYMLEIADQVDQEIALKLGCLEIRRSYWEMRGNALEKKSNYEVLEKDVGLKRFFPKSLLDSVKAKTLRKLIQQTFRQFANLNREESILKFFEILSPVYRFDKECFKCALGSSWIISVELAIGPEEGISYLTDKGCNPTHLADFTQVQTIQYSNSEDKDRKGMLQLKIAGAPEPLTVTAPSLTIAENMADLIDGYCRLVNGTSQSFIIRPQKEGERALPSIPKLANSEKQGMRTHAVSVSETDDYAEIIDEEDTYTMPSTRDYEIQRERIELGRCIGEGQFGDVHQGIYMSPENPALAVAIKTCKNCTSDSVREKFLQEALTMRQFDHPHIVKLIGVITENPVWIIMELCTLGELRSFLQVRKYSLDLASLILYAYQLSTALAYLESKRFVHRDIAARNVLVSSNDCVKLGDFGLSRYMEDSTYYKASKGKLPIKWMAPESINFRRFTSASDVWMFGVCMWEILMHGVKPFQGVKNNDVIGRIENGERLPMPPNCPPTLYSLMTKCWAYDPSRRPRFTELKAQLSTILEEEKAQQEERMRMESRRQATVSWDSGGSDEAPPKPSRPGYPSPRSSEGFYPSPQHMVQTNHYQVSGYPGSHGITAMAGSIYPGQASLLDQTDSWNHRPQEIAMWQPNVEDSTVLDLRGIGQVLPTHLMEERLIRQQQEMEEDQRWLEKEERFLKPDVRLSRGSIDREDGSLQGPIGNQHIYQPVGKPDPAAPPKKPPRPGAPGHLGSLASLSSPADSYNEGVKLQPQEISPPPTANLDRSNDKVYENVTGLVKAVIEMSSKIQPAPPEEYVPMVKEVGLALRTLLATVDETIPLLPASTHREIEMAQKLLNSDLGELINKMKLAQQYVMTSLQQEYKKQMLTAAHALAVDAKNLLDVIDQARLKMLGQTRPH
T5 sequence (O14757 whole entry): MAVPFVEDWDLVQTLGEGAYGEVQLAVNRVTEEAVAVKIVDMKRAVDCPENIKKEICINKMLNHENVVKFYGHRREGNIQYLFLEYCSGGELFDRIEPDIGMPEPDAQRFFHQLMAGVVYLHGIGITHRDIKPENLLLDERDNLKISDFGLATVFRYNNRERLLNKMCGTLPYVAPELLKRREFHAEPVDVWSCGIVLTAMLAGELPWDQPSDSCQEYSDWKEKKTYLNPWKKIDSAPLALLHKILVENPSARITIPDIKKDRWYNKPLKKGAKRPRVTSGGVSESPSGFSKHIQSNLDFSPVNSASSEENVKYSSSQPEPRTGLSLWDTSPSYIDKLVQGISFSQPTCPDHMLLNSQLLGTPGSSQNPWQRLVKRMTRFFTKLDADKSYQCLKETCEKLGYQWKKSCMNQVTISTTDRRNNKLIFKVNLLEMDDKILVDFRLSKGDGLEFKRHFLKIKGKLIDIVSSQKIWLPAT
T3 sequence (P10721 26-976 D816V): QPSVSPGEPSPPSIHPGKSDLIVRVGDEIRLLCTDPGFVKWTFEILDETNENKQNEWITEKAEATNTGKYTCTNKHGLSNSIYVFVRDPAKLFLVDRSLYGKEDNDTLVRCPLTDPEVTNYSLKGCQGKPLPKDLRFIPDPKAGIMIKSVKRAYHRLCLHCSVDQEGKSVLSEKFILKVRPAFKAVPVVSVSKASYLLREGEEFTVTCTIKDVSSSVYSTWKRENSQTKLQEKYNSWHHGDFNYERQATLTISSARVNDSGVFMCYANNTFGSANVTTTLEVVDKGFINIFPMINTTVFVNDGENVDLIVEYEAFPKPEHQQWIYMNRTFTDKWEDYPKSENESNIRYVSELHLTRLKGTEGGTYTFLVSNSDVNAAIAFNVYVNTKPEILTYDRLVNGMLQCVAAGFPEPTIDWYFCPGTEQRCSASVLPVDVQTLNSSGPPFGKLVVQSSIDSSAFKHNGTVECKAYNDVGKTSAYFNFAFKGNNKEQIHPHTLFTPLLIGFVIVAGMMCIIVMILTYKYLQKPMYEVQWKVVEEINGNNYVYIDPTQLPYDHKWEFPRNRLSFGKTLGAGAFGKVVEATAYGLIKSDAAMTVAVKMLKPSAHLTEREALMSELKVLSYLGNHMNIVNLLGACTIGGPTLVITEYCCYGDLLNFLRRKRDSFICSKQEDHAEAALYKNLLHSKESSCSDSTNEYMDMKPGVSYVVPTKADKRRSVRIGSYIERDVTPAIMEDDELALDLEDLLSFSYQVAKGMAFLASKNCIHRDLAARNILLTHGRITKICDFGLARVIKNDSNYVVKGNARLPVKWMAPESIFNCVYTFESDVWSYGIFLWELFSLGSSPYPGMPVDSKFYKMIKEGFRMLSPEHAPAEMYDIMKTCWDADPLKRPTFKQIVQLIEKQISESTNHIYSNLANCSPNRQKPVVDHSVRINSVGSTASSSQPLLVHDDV
T7 sequence (P15056 whole entry V600E): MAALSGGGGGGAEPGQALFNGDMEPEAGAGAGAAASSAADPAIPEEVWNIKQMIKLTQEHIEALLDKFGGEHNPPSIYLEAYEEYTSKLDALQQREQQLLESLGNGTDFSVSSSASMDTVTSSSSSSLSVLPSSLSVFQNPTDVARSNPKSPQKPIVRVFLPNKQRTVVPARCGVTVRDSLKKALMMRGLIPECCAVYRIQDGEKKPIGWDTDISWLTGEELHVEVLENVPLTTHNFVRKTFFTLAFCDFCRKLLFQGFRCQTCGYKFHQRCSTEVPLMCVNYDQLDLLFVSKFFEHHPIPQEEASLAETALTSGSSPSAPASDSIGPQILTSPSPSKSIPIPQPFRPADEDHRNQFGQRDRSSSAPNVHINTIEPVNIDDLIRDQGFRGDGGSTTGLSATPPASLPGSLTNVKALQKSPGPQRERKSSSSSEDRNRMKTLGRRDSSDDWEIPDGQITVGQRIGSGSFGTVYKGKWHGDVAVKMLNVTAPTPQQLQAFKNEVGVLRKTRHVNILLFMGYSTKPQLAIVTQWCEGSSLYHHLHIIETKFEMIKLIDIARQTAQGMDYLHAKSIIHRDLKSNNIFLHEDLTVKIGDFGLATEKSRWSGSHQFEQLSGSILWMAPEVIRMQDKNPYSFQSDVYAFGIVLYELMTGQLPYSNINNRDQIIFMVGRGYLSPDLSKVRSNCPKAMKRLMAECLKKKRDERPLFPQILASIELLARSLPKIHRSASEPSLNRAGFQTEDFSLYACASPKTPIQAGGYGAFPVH
T8 sequence (P07333 20-972): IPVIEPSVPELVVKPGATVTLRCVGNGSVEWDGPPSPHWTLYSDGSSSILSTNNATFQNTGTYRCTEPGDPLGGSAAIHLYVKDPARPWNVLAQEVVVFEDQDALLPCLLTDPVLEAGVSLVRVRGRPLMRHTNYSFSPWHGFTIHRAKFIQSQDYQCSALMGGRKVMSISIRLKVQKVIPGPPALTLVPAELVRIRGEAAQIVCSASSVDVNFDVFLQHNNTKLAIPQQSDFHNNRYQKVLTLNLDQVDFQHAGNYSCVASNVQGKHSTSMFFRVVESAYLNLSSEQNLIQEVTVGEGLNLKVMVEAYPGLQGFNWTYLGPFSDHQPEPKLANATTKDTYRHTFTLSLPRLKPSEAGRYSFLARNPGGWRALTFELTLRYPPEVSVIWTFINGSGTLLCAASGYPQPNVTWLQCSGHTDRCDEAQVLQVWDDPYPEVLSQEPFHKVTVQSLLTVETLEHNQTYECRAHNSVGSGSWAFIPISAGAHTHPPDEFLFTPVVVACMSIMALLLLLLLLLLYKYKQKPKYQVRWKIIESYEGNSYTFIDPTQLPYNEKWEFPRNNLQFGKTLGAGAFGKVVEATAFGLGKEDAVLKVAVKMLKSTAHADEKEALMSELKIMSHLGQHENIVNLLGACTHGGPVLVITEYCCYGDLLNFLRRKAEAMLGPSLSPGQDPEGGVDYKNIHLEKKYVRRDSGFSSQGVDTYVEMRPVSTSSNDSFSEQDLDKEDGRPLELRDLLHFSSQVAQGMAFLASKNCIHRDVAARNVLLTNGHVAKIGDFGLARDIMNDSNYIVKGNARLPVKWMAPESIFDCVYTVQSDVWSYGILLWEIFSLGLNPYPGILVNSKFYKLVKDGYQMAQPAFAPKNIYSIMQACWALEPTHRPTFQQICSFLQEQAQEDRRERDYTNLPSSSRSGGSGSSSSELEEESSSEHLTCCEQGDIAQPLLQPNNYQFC
T2 sequence (Q9BUB5 whole entry): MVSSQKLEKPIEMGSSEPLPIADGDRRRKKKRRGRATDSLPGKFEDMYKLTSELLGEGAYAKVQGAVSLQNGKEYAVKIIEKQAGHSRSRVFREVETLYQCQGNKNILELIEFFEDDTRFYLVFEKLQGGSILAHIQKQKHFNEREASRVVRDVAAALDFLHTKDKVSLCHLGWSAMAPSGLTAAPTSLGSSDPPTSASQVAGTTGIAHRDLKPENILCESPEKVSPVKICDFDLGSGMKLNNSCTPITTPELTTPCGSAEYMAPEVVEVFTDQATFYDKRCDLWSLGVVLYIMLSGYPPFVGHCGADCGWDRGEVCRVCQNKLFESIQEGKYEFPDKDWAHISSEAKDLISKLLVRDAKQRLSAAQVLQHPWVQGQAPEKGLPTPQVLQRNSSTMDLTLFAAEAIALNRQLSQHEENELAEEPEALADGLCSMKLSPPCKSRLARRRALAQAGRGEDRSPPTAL

Consider `C#Cc1cn([C@@H]2S[C@H](CO)[C@@H](O)[C@H]2O)c2ncnc(N)c12` [Compound 1g, (2R,3R,4S,5R)-2-(4-Amino-5-ethynyl-7H-pyrrolo[2,3-d]pyrimidin-7-yl)-5-(hydroxymethyl)tetrahydrothiophene-3,4-diol], for which the inhibition at 1 µM in assay [1] worked out at 11%; in assay [2] it was 0%; in assay [3], 22%; in assay [4], 0%; in assay [5], 0%; in assay [6], 3%. Also, the inhibition at 1 µM worked out at 0% in assay [7] and 20% in assay [8].

As a reminder, the inhibition is the relative decrease from the control value, in per cent. A low value points to a response near the control.
